Values of other authors, collected in publication PMC8148172, “Evaluation of a Keratin 1 Targeting Peptide-Doxorubicin Conjugate in a Mouse Model of Triple-Negative Breast Cancer” (Pharmaceutics, 2021).

Tests used:
[1] = set-up: method as in PMID 27370248, PMID 16515518; conditions: as conjugate with circulating albumin
TNBC = test system: TNBC; set-up: method as in PMID 28520410

Molecule	greater doses of Dox administered with minimal cardiotoxicity [1]	targeting of TNBC relative to linear 18-4 peptide (TNBC)
COc1cccc2c1C(=O)c1c(O)c3c(c(O)c1C2=O)C[C@@](O)(/C(CO)=N/NC(=O)CCCCCN1C(=O)C=CC1=O)C[C@@H]3O[C@H]1C[C@H](N)[C@H](O)[C@H](C)O1 [Aldox, aldoxorubicin]	3–4 ×	
N- to C-terminal cyclized WXEAAYQkFL [cyclic analogue of 18-4]		2–3 fold
